# From US12433902B2, “Liposomal formulations for inhibiting SARS-CoV-2 replication and reducing lung inflammation” (priority 2021, dated 2025)
# Structures can show the parent of a compound that is named as a salt.
# How the values were obtained:
# SARS-CoV-2 = conditions: cited from earlier work
# [1] = cited from earlier work
# [2] = Toxicity observation at the 20 μg dose of BUD; type: in vivo, C57BL/6 mice; conditions: 20 μg dose of BUD
molecule,measurement,setting,value
human recombinant soluble ACE2: human recombinant soluble ACE2,viral growth in vitro,SARS-CoV-2,reduces viral growth in vitro
CN(C)C(=O)COC(=O)Cc1ccc(OC(=O)c2ccc(NC(=N)N)cc2)cc1 [camostat mesylate],SARS-CoV-2 growth,"SARS-CoV-2; high doses (e.g., 100 μg/mL)",reduce SARS-CoV-2 growth partially
CCCC1O[C@@H]2C[C@H]3[C@@H]4CCC5=CC(=O)C=C[C@]5(C)[C@H]4[C@@H](O)C[C@]3(C)[C@]2(C(=O)CO)O1 (some centres unmarked) [budesonide],half-life,[1]; BUD alone in the lungs,about 36 hours
same,effective life in the lungs,[1]; BUD alone,slightly more than one day
same,"toxicity to the spleen, liver, bone marrow, skin or the gastrointestinal tract",[2],without evidence of toxicity
